Data set [1] is described as follows: Permeability from apical to basal side across human Caco2 cells. The format is ADME, cell-based. Conditions: Caco-2, read-out: permeability. For orientation: Caco-2 cells form a polarised layer with tight junctions and transporters.
Data set [2] can be described thus: Permeability from basal to apical side across human Caco2 cells. Type of data set: ADME, cell-based. Conditions: Caco-2, read-out: permeability.
Data set [3] relates to Rattus norvegicus. Description: Tmax in Sprague-Dawley rat assessed as VX166 level at 10 mg/kg, po. Conditions: in vivo. Further details: dose 10 mg/kg, route oral. Type of data set: ADME, organism-based.
The subject of data set [4] is Rattus norvegicus. Description: Oral bioavailability in Sprague-Dawley rat assessed as VX166 level at 10 mg/kg. The format is ADME, organism-based. Conditions: in vivo.
Data set [5] in a line: Half life in buffer at pH 9 assessed as prodrug conversion. Type of data set: physicochemical.
Data set [6] in a line: Half life in buffer at pH 6 assessed as prodrug conversion. Type of data set: physicochemical.
Data set [7] has as its system Rattus norvegicus. Description: AUC (0 to infinity) in Sprague-Dawley rat assessed as VX166 level in plasma at 10 mg/kg, po. Conditions: in vivo. Details: time infinity, dose 10 mg/kg, route oral. Type of data set: ADME, organism-based.
The subject of data set [8] is Rattus norvegicus. Nature of the data set: Half life in Sprague-Dawley rat assessed as prodrug conversion to VX166 at 10 mg/kg, po. The format is ADME, organism-based. Details: dose 10 mg/kg, route oral. Conditions: in vivo.
Data set [9] concerns Plasma. Description: Half life in human plasma assessed as < 50% of prodrug is remaining. Type of data set: ADME, cell-free.
Data set [10] relates to Plasma. Nature of the data set: Half life in rat plasma assessed as < 10% of prodrug is remaining. Type of data set: ADME, cell-free.
Data set [11] in a line: Half life in buffer at pH 4 assessed as prodrug conversion. The format is physicochemical.
Data set [12] in a line: Half life in buffer at pH 7.4 assessed as prodrug conversion. Type of data set: physicochemical.
Data set [13] concerns Plasma. Nature of the data set: Half life in rat plasma assessed as < 50% of prodrug is remaining. Type of data set: ADME, cell-free.
Data set [14] deals with Plasma. Nature of the data set: Half life in human plasma assessed as around 50% of prodrug is remaining. Type of data set: ADME, cell-free.
Data set [15] in a line: Half life in Sprague-Dawley rat at 10 mg/kg, iv. Type of data set: ADME, organism-based. Conditions: in vivo. Further details: dose 10 mg/kg, route intravenous.
Data set [16] can be described thus: Half life in Sprague-Dawley rat at 10 mg/kg, po. Type of data set: ADME, organism-based. Further details: dose 10 mg/kg, route oral. Conditions: in vivo.
Data set [17] in a line: Clearance in Sprague-Dawley rat at 10 mg/kg, iv. Conditions: in vivo. Details: dose 10 mg/kg, route intravenous. The format is ADME, organism-based.
A short description of data set [18]: AUC (0 to infinity) in Sprague-Dawley rat at 10 mg/kg, iv. Conditions: plasma. Type of data set: ADME, organism-based. Further details: time infinity, dose 10 mg/kg, route intravenous.
Data set [19] in a line: AUC (0 to infinity) in Sprague-Dawley rat at 10 mg/kg, po. The format is ADME, organism-based. Further details: time infinity, dose 10 mg/kg, route oral. Conditions: plasma.
The nature of data set [20]: Tmax in Sprague-Dawley rat at 10 mg/kg, po. The format is ADME, organism-based. Details: dose 10 mg/kg, route oral. Conditions: in vivo.
Data set [21] in a line: Oral bioavailability in Sprague-Dawley rat at 10 mg/kg. Conditions: in vivo. The format is ADME, organism-based.

Where only a bound is given, the exact number is not on record here.

Regarding `C[C@H](NC(=O)C(=O)Nc1ccccc1C(C)(C)C)C(=O)N[C@@H](CC(=O)O)C(=O)COc1c(F)c(F)cc(F)c1F` [EMRICASAN], the Papp A→B in [1] was 0.5 ×10⁻⁶ cm/s. The Papp B→A in data set [2] came to 10 ×10⁻⁶ cm/s.
For orientation: Tmax means the time from dosing to the highest level. What is called AUC is concentration integrated over time. In the case of `CC[C@@H](C1=N[C@H]2CC(=O)O[C@@]2(COc2c(F)c(F)cc(F)c2F)O1)n1cccc(NC(=O)OC)c1=O`, the Tmax in the data set on Rattus norvegicus [3] was 37.8 min. Moreover, the F in the data set with Rattus norvegicus [4] is 27%. For the same molecule, the t1/2 in data set [5] is 42 min; in [6], 522 min; in the data set with Rattus norvegicus [8], 58.2 min; with Plasma [9], less than 1 min; with Plasma [10], less than 1 min; in [11], 108 min. In addition, the t1/2 in [12] was determined as 192 min. The AUC in the data set with Rattus norvegicus [7] was determined as 1660 ng·h/mL.
For `C[C@H](NC(=O)C(=O)Nc1ccccc1C(C)(C)C)C1=N[C@H]2CC(=O)O[C@@]2(COc2c(F)c(F)cc(F)c2F)O1`, in data set [1], the Papp A→B amounted to 0.5 ×10⁻⁶ cm/s. In [2], the Papp B→A is 10 ×10⁻⁶ cm/s. The t1/2 was 438 min in data set [5]; 1490 min in [6]; less than 1 min with Plasma [13]; 1 min with Plasma [14]; 72 min in data set [11]; 1780 min in data set [12].
The half-life is the time needed for the level to fall by half in the phase considered. In general, clearance refers to the volume of plasma or blood freed of the substance per unit of time. Higher therefore signals a high capacity for elimination. The AUC(0-inf) is total exposure, with the tail of the curve extrapolated. Read a high AUC(0-inf) as high exposure. As a reminder, the bioavailability is the share of a dose that reaches the circulation, judged against a reference dose that is usually intravenous. On to `CC[C@@H](C(=O)N[C@@H](CC(=O)O)C(=O)COc1c(F)c(F)cc(F)c1F)n1cccc(NC(=O)OC)c1=O`, for which the half-life is 31.8 min in data set [15] and 91.8 min in [16]. This molecule displayed a clearance in data set [17] of 22.3 mL/min/kg. Further, the AUC(0-inf) in data set [18] came to 6160 ng·h/mL; in data set [19], 860 ng·h/mL. The time of peak concentration (Tmax) in data set [20] was found to be 19.8 min. This molecule also registered a bioavailability in [21] of 14%.
For the molecule `O=C1C[C@@H]2N=C(c3cccc4ccccc34)O[C@]2(CF)O1`, the t1/2 was 48 min in data set [5]; 792 min in data set [6]; 1 min in the data set on Plasma [14]; less than 1 min in the data set with Plasma [10]; 864 min in data set [11]; 240 min in [12].

For the origin of these results see ChEMBL document CHEMBL1933015, “Synthesis and evaluation of novel prodrugs of caspase inhibitors” (Bioorg Med Chem Lett, 2012).
